Laboratory results: ChEMBL document CHEMBL6103629 (J Med Chem, 2025)
pIC50: −log10 of the molar value.

Assays:
CWR22R = assay: Antiproliferative activity against human 22Rv1 cells incubated for 120 hrs by Cell-titer Glo luminescent assay; conditions: 22Rv1, 120 h
[1] = molecular target: Serine/threonine-protein kinase ATR (Homo sapiens, UniProt Q13535); assay: Inhibition of ATR (unknown origin) assessed as reduction in p53 phosphorylation level incubated for 30 mins by TR-FRET assay
NCI-H146 = assay: Antiproliferative activity against human NCI-H146 cells; type: functional, cell-based
LoVo [2] = assay: Antitumor activity against human LoVo cells xenografted in female Balb/c nude mouse assessed as tumor growth inhibition at 50 mg/kg QD, po measured every 3 days for 25 days relative to control; type: functional; conditions: 600 h, time 25 day, read-out: TGI
JeKo-1 = assay: Antitumor activity against human JeKo-1 cells xenografted in female CB17 SCID mouse assessed as tumor growth inhibition at 50 mg/kg BID, po measured every 2 days for 24 days relative to control; type: functional; conditions: JeKo-1, 576 h, time 24 day, read-out: TGI
LoVo [3] = assay: Induction of apoptosis in human LoVo cells assessed as early apoptotic cells at 3 uM incubated for 24 hrs by Annexin-V-FITC-PI staining based flow cytometric analysis (reference value: 13.7 %); type: functional
LoVo [4] = assay: Induction of apoptosis in human LoVo cells assessed as necrotic cells at 3 uM incubated for 24 hrs by Annexin-V-FITC-PI staining based flow cytometric analysis (reference value: 0.97 %); type: functional
LoVo [5] = assay: Induction of apoptosis in human LoVo cells assessed as late apoptotic cells at 3 uM incubated for 24 hrs by Annexin-V-FITC-PI staining based flow cytometric analysis (reference value: 13.2 %); type: functional
LoVo [6] = assay: Induction of apoptosis in human LoVo cells assessed as viable cells at 3 uM incubated for 24 hrs by Annexin-V-FITC-PI staining based flow cytometric analysis (reference value: 72.1 %); type: functional; conditions: read-out: Activity
NCI-H1703 = assay: Antitumor activity against human NCI-H1703 cells xenografted in female Balb/c nude mouse assessed as tumor growth inhibition at 50 mg/kg QD, po measured every 3 days for 28 days by vernier caliper based analysis relative to control; type: functional; conditions: NCI-H1703, 672 h, time 28 day, read-out: TGI

Chain of Serine/threonine-protein kinase ATR (Q13535 whole entry): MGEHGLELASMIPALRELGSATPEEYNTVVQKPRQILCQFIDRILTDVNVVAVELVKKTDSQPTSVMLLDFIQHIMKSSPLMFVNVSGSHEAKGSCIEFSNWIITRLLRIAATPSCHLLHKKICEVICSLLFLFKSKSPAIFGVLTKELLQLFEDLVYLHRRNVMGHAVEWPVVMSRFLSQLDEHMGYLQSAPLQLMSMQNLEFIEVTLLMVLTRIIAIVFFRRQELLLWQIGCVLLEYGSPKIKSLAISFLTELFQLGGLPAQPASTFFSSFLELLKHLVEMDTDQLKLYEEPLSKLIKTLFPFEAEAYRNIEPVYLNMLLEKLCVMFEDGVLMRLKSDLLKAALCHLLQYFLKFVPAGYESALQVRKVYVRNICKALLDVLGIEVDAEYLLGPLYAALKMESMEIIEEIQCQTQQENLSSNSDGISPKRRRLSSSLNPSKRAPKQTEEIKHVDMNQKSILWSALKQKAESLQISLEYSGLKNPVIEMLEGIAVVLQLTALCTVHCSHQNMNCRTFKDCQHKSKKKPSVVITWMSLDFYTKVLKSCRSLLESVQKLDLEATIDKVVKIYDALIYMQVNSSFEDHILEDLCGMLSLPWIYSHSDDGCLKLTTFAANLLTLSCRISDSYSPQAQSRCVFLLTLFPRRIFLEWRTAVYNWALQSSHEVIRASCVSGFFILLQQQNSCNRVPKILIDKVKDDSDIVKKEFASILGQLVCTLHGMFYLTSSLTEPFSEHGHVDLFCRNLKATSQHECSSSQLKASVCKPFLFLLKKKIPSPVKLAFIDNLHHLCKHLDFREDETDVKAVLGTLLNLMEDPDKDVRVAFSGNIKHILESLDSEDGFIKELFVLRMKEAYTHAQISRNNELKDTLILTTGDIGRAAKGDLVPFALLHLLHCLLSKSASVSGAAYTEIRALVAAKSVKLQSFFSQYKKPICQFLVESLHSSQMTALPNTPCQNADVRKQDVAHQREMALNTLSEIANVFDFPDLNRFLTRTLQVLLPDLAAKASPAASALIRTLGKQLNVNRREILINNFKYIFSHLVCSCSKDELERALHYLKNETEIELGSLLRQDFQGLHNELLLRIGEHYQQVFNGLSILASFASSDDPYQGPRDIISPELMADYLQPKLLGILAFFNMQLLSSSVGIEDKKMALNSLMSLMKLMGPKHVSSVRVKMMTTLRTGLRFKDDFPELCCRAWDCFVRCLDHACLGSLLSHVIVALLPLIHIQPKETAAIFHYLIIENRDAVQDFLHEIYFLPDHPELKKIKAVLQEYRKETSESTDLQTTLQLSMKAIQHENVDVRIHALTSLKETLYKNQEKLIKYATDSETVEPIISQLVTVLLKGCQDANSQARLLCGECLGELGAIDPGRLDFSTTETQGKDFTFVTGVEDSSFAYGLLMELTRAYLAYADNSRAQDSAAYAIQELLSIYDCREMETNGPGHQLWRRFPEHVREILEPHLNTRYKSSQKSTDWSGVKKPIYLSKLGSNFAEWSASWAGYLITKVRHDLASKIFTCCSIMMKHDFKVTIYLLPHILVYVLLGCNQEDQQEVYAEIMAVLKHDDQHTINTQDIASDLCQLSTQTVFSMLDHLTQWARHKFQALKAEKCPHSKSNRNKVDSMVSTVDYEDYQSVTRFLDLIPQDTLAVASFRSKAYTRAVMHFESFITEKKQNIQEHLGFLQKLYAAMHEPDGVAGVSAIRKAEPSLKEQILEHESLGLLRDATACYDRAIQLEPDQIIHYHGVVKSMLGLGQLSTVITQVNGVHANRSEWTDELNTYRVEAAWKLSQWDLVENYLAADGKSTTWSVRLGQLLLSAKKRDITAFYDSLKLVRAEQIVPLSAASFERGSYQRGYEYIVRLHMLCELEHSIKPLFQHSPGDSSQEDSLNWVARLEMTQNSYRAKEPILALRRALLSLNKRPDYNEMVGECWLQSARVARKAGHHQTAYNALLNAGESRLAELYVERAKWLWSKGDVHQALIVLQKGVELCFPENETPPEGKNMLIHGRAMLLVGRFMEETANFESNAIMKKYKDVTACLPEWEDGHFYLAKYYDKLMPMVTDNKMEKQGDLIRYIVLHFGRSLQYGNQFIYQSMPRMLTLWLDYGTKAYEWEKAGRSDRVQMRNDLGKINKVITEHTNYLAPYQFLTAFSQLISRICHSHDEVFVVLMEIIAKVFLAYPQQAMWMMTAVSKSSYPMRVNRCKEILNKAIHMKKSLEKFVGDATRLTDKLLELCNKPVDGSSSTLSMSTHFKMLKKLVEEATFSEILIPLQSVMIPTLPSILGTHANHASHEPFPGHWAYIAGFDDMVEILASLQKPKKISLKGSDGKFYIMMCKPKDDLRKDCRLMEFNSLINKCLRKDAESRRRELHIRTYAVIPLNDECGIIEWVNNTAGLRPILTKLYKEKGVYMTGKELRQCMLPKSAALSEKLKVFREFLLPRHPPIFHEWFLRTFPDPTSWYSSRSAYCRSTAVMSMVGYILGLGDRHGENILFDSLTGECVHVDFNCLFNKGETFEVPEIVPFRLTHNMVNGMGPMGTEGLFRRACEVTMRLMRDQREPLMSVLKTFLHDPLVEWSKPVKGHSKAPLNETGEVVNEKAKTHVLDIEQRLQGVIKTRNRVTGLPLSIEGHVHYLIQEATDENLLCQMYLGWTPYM

| pIC50 [1] | Compound | pIC50 (CWR22R) | also measured |
| --- | --- | --- | --- |
| < 6.30 | Cc1n[nH]c(C)c1-c1cc(N2CC3CCC(C2)O3)n2ncc(-c3ccccc3)c2n1 | < 5.00 | – |
| – | Cc1nn(-c2ccncc2)c(C)c1-c1cc(N2CC3CCC(C2)O3)nc2c(-c3ccn[nH]3)cnn12 | 5.75 | – |
| < 6.30 | Cc1n[nH]c(C)c1-c1cc(N2CC3CCC(C2)O3)nc2c(-c3ccnn3C)cnn12 | 5.19 | – |
| – | Cc1nn(C2CCCNC2)c(C)c1-c1cc(N2CC3CCC(C2)O3)nc2c(-c3ccn[nH]3)cnn12 (stereo not drawn) | 5.34 | – |
| – | COc1cncc(-n2nc(C)c(-c3cc(N4CC5CCC(C4)O5)nc4c(-c5ccn[nH]5)cnn34)c2C)c1 | 6.43 | – |
| – | Cc1n[nH]c(C)c1-c1cc(N2CC3CCC(C2)O3)n2ncc(-c3ccnn3C)c2n1 | 5.17 | – |
| – | Cc1nn(-c2cccnc2)c(C)c1-c1cc(N2C[C@H]3C[C@@H]2CO3)nc2c(-c3ccn[nH]3)cnn12 | < 5.00 | – |
| > 6.00 | Cn1cncc1-c1c(F)cncc1NC(=O)c1c(N)nn2cc(F)cnc12 [TUVUSERTIB] | – | pIC50 (NCI-H146): 6.14 |
| < 6.30 | Cc1n[nH]c(C)c1-c1cc(N2CC3CCC(C2)O3)n2ncc(-c3cnn(C)c3C)c2n1 | < 5.00 | – |
| – | C[C@@H]1COCCN1c1cc(C2([S@](C)(=N)=O)CC2)nc(-c2cc[nH]c3nccc2-3)n1 [CERALASERTIB] | 6.04 | inhibition in vivo at 50 mg/kg (LoVo [2]): 57%; inhibition in vivo at 50 mg/kg (JeKo-1): 90.6%; Activity (LoVo [3]): 19.3%; Activity (LoVo [4]): 1.93%; Activity (LoVo [5]): 24%; viability at 3 µM (LoVo [6]): 54.7%; inhibition in vivo at 50 mg/kg (NCI-H1703): 34% |
| 8.00 | Cc1cncc(-n2nc(C)c(-c3cc(N4CC5CCC(C4)O5)nc4c(-c5ccn[nH]5)cnn34)c2C)c1 | 6.63 | – |
| – | Cc1n[nH]c(C)c1-c1cc(N2CC3CCC(C2)O3)nc2c(-c3ccccc3)cnn12 | 6.06 | – |
| – | Cc1nn(-c2cncc(C#N)c2)c(C)c1-c1cc(N2CC3CCC(C2)O3)nc2c(-c3ccn[nH]3)cnn12 | 5.85 | – |
| – | Cc1cc(-c2cnn3c(-c4c(C)nn(-c5cccnc5)c4C)cc(N4CC5CCC(C4)O5)nc23)[nH]n1 | 6.82 | – |
| – | Cc1n[nH]c(C)c1-c1cc(N2CC3CCC(C2)O3)n2ncc(-c3cnn(C)c3)c2n1 | 6.03 | – |
| – | Cc1nn(-c2cncc(Cl)c2)c(C)c1-c1cc(N2CC3CCC(C2)O3)nc2c(-c3ccn[nH]3)cnn12 | 6.17 | – |
